According to paper PMC10648937, “Drug distribution and efficacy of the DprE1 inhibitor BTZ-043 in the C3HeB/FeJ mouse tuberculosis model” (Antimicrobial Agents and Chemotherapy, 2023):
“And” between values parts separate entries of the source, which are not always exact repeats. Equal entries are not always repeated. Where two headings read alike, the source gives them in different places.

Legend:
[1] = tested on: Mtb Erdman; test: Semi-quantitative MBC (sqMBC) assay; type: cell-based, Mycobacterium tuberculosis; conditions: M. tuberculosis Erdman; for sqMBC: 10 d incubation, 99% (2-log10) CFU reduction of inoculum; for sqMBC + huSA: with 4% huSA
[2] = tested on: Mtb Erdman; test: Broth microdilution MIC (Alamar Blue endpoint), with and without 4% huSA (serum-shift assay); conditions: for shift in MIC in the presence of huSA: physiologic levels (4%) of huSA
[3] = tested on: non-replicating Mtb in rabbit caseum; design: method as in PMID 34370580; conditions: similarly reported previously; cited from earlier work
[4] = tested on: Mtb; design: method as in PMID 34370580; conditions: C3HeB/FeJ mice, 8 weeks (5 of 7 days per week), cited from earlier work
[5] = Plasma and lesion drug levels by LCM-LC/MS-MS in C3HeB/FeJ mice; conditions: 100 mg/kg
[6] = tested on: Mtb Erdman-infected C3HeB/FeJ mice; test: Pulmonary histopathology (pathologist scores and LIRA) in C3HeB/FeJ mice; type: in vivo, mouse
[7] = tested on: intracellular mycobacteria in macrophages; design: method as in PMID 19299584; conditions: cited from earlier work
[8] = tested on: Mtb Erdman; test: Efficacy in lungs of Mtb Erdman-infected C3HeB/FeJ mice (CFU, kill rates); type: in vivo, Mycobacterium tuberculosis; conditions: for kill rate k[0-28] (SE), lungs, Type I (TI) subset / kill rate k[0-56] (SE), lungs, Type I (TI) subset / kill rate k[28-56] (SE), lungs, Type I (TI) subset: TI lesions; for kill rate k[0-28] (SE), lungs, Type III (TIII) subset / kill rate k[0-56] (SE), lungs, Type III (TIII) subset / kill rate k[28-56] (SE), lungs, Type III (TIII) subset: TIII lesions; for kill rate k[0-28] (SE), lungs: day 0 to 28; for kill rate k[0-56] (SE), lungs: day 0 to 56; for kill rate k[28-56] (SE), lungs: day 28 to 56
[9] = tested on: Mtb Erdman; test: Efficacy in spleens of Mtb Erdman-infected C3HeB/FeJ mice (CFU, kill rates); type: in vivo, Mycobacterium tuberculosis; conditions: for kill rate k[0-28] (SE), spleens: day 0 to 28; for kill rate k[0-56] (SE), spleens: day 0 to 56; for kill rate k[28-56] (SE), spleens: day 28 to 56
[10] = tested on: Mtb Erdman; test: In vitro kill kinetics under replicating conditions; type: cell-based, Mycobacterium tuberculosis; conditions: 8× and 20× MIC, CFU/mL over 14 days
[11] = human; cited from earlier work
[12] = tested on: non-growing streptomycin-dependent Mtb strain 18b; design: method as in PMID 20679505; conditions: cited from earlier work
[13] = C3HeB/FeJ, mouse, in vivo, 1 h
[14] = tested on: non-replicating Mtb in rabbit caseum; test: Explanted rabbit caseum MBC assay; type: cell-based, Mycobacterium tuberculosis; conditions: test concentrations up to 512 µM, 7 days
[15] = Mycobacterium tuberculosis, ERDMAN
[16] = Mycobacterium tuberculosis, ERDMAN, read-out: MIC + huSA
[17] = 200 mg/kg QD, 8 weeks, group average
[18] = 200 mg/kg QD, 8 weeks, mice Mx I to Mx L
[19] = 50 mg/kg QD, 8 weeks of treatment
[20] = 200 mg/kg QD, 8 weeks of treatment

O=C1CCc2c(OC[C@]3(O)CCN(c4c(F)cc(Cl)cc4F)C[C@H]3O)ccc(F)c2N1 [OPC-167832]
sqMBC [1]: 0.001 µg/mL | sqMBC + huSA [1]: 0.016 µg/mL | MIC [2, 15]: 0.0005 µg/mL | MIC [2, 16]: 0.008 µg/mL | shift in MIC in the presence of huSA [2]: 16 fold | activity against non-replicating Mtb in rabbit caseum MBC assay [3]: lacked appreciable activity | average lung CFU reduction compared to untreated controls ([4]; 5 and 20 mg/kg QD): 3 log10

COc1ncnc(Cn2cc(C(=O)NCCO)c3ncc(C)cc32)c1C [TBA-7371]
sqMBC [1]: 1 µg/mL | sqMBC + huSA [1]: 1 µg/mL | MIC [2, 15]: 0.5 µg/mL | MIC [2, 16]: 1 µg/mL | activity against non-replicating Mtb in rabbit caseum MBC assay [3]: lacked appreciable activity | average lung CFU reduction compared to untreated controls ([4]; 100 and 200 mg/kg BID): 1.5 log10

O=c1nc(N2CCN(CC3CCCCC3)CC2)sc2c([N+](=O)[O-])cc(C(F)(F)F)cc12 [PBTZ169]
sqMBC [1]: ≤ 0.002 µg/mL | sqMBC + huSA [1]: 0.016 µg/mL | MIC [2, 15]: ≤ 0.002 µg/mL | MIC [2, 16]: 0.016 µg/mL | shift in MIC in the presence of huSA [2]: 8 fold | activity against non-replicating Mtb in rabbit caseum MBC assay [3]: lacked appreciable activity | average lung CFU reduction compared to untreated controls ([4]; 50 and 100 mg/kg QD): 1.5 log10

C[C@H]1COC2(CCN(c3nc(=O)c4cc(C(F)(F)F)cc([N+](=O)[O-])c4s3)CC2)O1 [BTZ-043]
drug levels in plasma, lung parenchyma, cellular lesion and cellular-caseum interface relative to serum-shifted MIC ([5]; 2.5 weeks, end of the dosing interval (24 h)): fell below the serum-shifted MIC | drug level in cellular-caseum interface over the serum-shifted MIC ([5]; 5 of 7 days per week for 2.5 weeks, Tmax (1 h)): 93 fold | percent lung involvement, Healthy Tissue (LIRA), average [6, 17]: 73.70% | percent lung involvement, Type I - Caseum (LIRA), average [6, 17]: 10% and 10.01% | percent lung involvement, Type I - Rim (LIRA), average [6, 17]: 4.85% | percent lung involvement, Type II (LIRA), average [6, 17]: 0% | percent lung involvement, Type III (LIRA), average [6, 17]: 11% and 11.44% | percent lung involvement, Healthy Tissue (LIRA), individual mice [6, 18]: 90.59% and 66.70% and 47.22% and 90.31% | percent lung involvement, Type I - Caseum (LIRA), individual mice [6, 18]: 2.82% and 6.51% and 30.69% and 0.00% | percent lung involvement, Type I - Rim (LIRA), individual mice [6, 18]: 3.75% and 4.76% and 10.89% and 0.00% | percent lung involvement, Type II (LIRA), individual mice [6, 18]: 0.00% | percent lung involvement, Type III (LIRA), individual mice [6, 18]: 2.83% and 22.03% and 11.21% and 9.69% | histology scores by board-certified pathologist ([6]; 200 mg/kg, 8 weeks of treatment, compared to untreated mice): improved overall histology scores | sqMBC [1]: 0.016 µg/mL | sqMBC + huSA [1]: 0.03 µg/mL | protein binding indicated by serum-shift MIC assay ([2]; 4% huSA): ~ 75% | MIC ([2]; M. tuberculosis Erdman, 7H9 media): 0.008 µg/mL | MIC [2, 15]: 0.008 µg/mL | MIC [2, 16]: 0.03 µg/mL | deduced MIC against intracellular mycobacteria in macrophages [7]: < 0.01 µg/mL | lung CFU reduction from the start of treatment [8, 19]: ~ 1.04 log10 CFU | lung CFU reduction versus untreated [8, 19]: ~ 2.43 log10 CFU | kill rate k[0-28] (SE), lungs, Type I (TI) subset ([8]; 50 mg/kg QD): 0.011 (0.010) log10CFU per day | kill rate k[0-56] (SE), lungs, Type I (TI) subset ([8]; 50 mg/kg QD): 0.023 (0.008) log10CFU per day | kill rate k[28-56] (SE), lungs, Type I (TI) subset ([8]; 50 mg/kg QD): 0.032 (0.015) log10CFU per day | kill rate k[0-28] (SE), lungs, Type III (TIII) subset ([8]; 50 mg/kg QD): 0.063 (0.007) log10CFU per day | kill rate k[0-56] (SE), lungs, Type III (TIII) subset ([8]; 50 mg/kg QD): 0.039 (0.007) log10CFU per day | kill rate k[28-56] (SE), lungs, Type III (TIII) subset ([8]; 50 mg/kg QD): 0.005 (0.010) log10CFU per day | kill rate k[0-28] (SE), lungs ([8]; 50 mg/kg QD): 0.022 log10CFU per day and 0.022 (0.018) log10CFU per day | kill rate k[0-56] (SE), lungs ([8]; 50 mg/kg QD): 0.019 (0.009) log10CFU per day | kill rate k[28-56] (SE), lungs ([8]; 50 mg/kg QD): 0.015 log10CFU per day and 0.015 (0.021) log10CFU per day | kill rate k[0-28] (SE), lungs, Type I (TI) subset ([8]; 100 mg/kg QD): 0.011 (0.011) log10CFU per day | kill rate k[0-56] (SE), lungs, Type I (TI) subset ([8]; 100 mg/kg QD): 0.047 (0.011) log10CFU per day | kill rate k[28-56] (SE), lungs, Type I (TI) subset ([8]; 100 mg/kg QD): 0.078 (0.017) log10CFU per day | kill rate k[0-28] (SE), lungs, Type III (TIII) subset ([8]; 100 mg/kg QD): 0.041 (0.007) log10CFU per day | kill rate k[0-56] (SE), lungs, Type III (TIII) subset ([8]; 100 mg/kg QD): 0.022 (0.005) log10CFU per day | kill rate k[28-56] (SE), lungs, Type III (TIII) subset ([8]; 100 mg/kg QD): 0.003 (0.015) log10CFU per day | kill rate k[0-28] (SE), lungs ([8]; 100 mg/kg QD): 0.006 log10CFU per day and 0.006 (0.013) log10CFU per day | kill rate k[0-56] (SE), lungs ([8]; 100 mg/kg QD): 0.031 (0.007) log10CFU per day | kill rate k[28-56] (SE), lungs ([8]; 100 mg/kg QD): 0.056 log10CFU per day and 0.056 (0.015) log10CFU per day | lung CFU reduction from the start of treatment [8, 20]: ~ 2.59 log10 CFU | lung CFU reduction versus untreated [8, 20]: ~ 3.98 log10 CFU | kill rate k[0-28] (SE), lungs, Type I (TI) subset ([8]; 200 mg/kg QD): 0.023 (0.011) log10CFU per day | kill rate k[0-56] (SE), lungs, Type I (TI) subset ([8]; 200 mg/kg QD): 0.042 (0.009) log10CFU per day | kill rate k[28-56] (SE), lungs, Type I (TI) subset ([8]; 200 mg/kg QD): 0.062 (0.014) log10CFU per day | kill rate k[0-28] (SE), lungs, Type III (TIII) subset ([8]; 200 mg/kg QD): 0.019 (0.009) log10CFU per day | kill rate k[0-56] (SE), lungs, Type III (TIII) subset ([8]; 200 mg/kg QD): 0.049 (0.005) log10CFU per day | kill rate k[28-56] (SE), lungs, Type III (TIII) subset ([8]; 200 mg/kg QD): 0.079 (0.015) log10CFU per day | kill rate k[0-28] (SE), lungs ([8]; 200 mg/kg QD): 0.005 log10CFU per day and 0.005 (0.010) log10CFU per day | kill rate k[0-56] (SE), lungs ([8]; 200 mg/kg QD): 0.046 (0.008) log10CFU per day | kill rate k[28-56] (SE), lungs ([8]; 200 mg/kg QD): 0.087 log10CFU per day and 0.087 (0.013) log10CFU per day | effect on lung bacterial load ([8]; 4 weeks of treatment, all dose groups (50, 100, 200 mg/kg), Dunnett's P = 0.002 to 0.03): statistically significant reductions | effect on lung bacterial load ([8]; 8 weeks of treatment, all dose groups, Dunnett's P < 0.0001): statistically significant reduction | kill rate k[0-28] (SE), spleens ([9]; 50 mg/kg QD): 0.048 (0.006) log10CFU per day | kill rate k[0-56] (SE), spleens ([9]; 50 mg/kg QD): 0.026 (0.004) log10CFU per day | kill rate k[28-56] (SE), spleens ([9]; 50 mg/kg QD): 0.004 (0.007) log10CFU per day | kill rate k[0-28] (SE), spleens ([9]; 100 mg/kg QD): 0.046 (0.006) log10CFU per day | kill rate k[0-56] (SE), spleens ([9]; 100 mg/kg QD): 0.041 (0.003) log10CFU per day | kill rate k[28-56] (SE), spleens ([9]; 100 mg/kg QD): 0.036 (0.006) log10CFU per day | kill rate k[0-28] (SE), spleens ([9]; 200 mg/kg QD): 0.057 (0.005) log10CFU per day | kill rate k[0-56] (SE), spleens ([9]; 200 mg/kg QD): 0.046 (0.003) log10CFU per day | kill rate k[28-56] (SE), spleens ([9]; 200 mg/kg QD): 0.034 (0.006) log10CFU per day | mice with spleen CFU below the lower limit of detection ([9]; 200 mg/kg, 8 weeks, limit 1.7 log10 CFU/spleen): 4 out of 8 | effect on spleen bacterial load ([9]; 4 weeks of treatment, all dose groups, Dunnett's P = 0.003 to 0.0001): statistically significant reductions | effect on spleen burdens ([9]; 8 weeks of treatment, Dunnett's P < 0.0001): statistically significant reductions | kill kinetics (cidality) [10]: cidality | plasma protein binding [11]: 99.4% | activity against non-growing Mtb strain 18b following depletion of streptomycin [12]: limited activity | drug level in cellular lesion over the serum-shifted MIC [13]: 121 fold | drug level in lung parenchyma over the serum-shifted MIC [13]: 228 fold | drug level in plasma over the serum-shifted MIC [13]: 237 fold | activity against non-replicating Mtb in rabbit caseum MBC assay [14]: lacked appreciable activity

COc1c(N2C[C@@H]3CCCN[C@@H]3C2)c(F)cc2c(=O)c(C(=O)O)cn(C3CC3)c12 [moxifloxacin]
sqMBC [1]: 0.125 µg/mL | MIC [2, 15]: 0.06 µg/mL

CC(=O)NC[C@H]1CN(c2ccc(N3CCOCC3)c(F)c2)C(=O)O1 [linezolid]
sqMBC [1]: > 8 µg/mL | MIC [2, 15]: 1 µg/mL | MIC [2, 16]: 1 µg/mL
